Reference: patent US5846939A, “Use of a decapeptide with benzodiazepine-type activity for preparing medicines and food supplements” (Societe Cooperative Agricole Laitiere D'Artois Et Des …, priority 1994, dated 1998)

How the values were obtained:
[1] = tested on: anxiety in the rat (elevated plus-maze); experiment: Tranquilizing activity, elevated plus-maze test; assay type: in vivo; settings: intraperitoneal, diazepam 2 mg/kg, hydrolysate 3 mg/kg
Source text: To measure anxiety in the rat, the elevated plus-maze test described by Pellow et al. (14) was used which is based on neophobia in the rat. The plus-maze had four branches that were 50 cm long and 10 cm wide. The two closed branches were surrounded by walls that were 25 cm high (the top being left open for observation) and the entire maze was 50 cm above the ground. The center of the maze communicated with the two open arms and the two closed arms.
The number of times the animal enters the open arms, the closed arms, and the total number of times the rat enters the arms are important parameters. The time passed in each type of branch was also measured. Other parameters (a total of 22) such as the number of times the rat stood up, the number of times it groomed itself (signs of anxiety), or latency of first entry into an open or closed branch were taken into account. […] Its entire behavior was filmed by video camera, which procedure served to avoid errors.
The control group (CTR) received an intraperitoneal injection of solvent only, which solvent was a mixture of gelatin and mannitol (0.5%/5%) dissolved in water. […] The animals in all of the groups were injected half an hour before going to the plus-maze. To begin the experiments, each rat was placed in the center of the apparatus.

[2] = molecular target: central benzodiazepine receptor; settings: radioligand of the kit; cited from earlier work

Row | Structure (SMILES) | number of entries into closed branches [1] | number of entries into open branches ([1]; control 1.5±0.3) | time spent in the open branches ([1]; control 19.3±4.4 s) [s] | Ki [2] [nM]
1 | CN1C(=O)CN=C(c2ccccc2)c2cc(Cl)ccc21 [diazepam] | did not vary significantly | 3.0±0.4 | 70.1 ± 19.9 | 
2 | CN1C(=O)CN=C(c2ccccc2F)c2cc([N+](=O)[O-])ccc21 [^3 H-methyl-flunitrazepam] |  |  |  | 1.2
